Experiments:
refractory APL = details: 14 of 15 patients with refractory APL; intravenous 10 mg/day for 4-9 weeks; cited from earlier work
NCI-H23 = assay: SRB growth assay, 6 days exposure, non-small cell lung cancer; type: cell-based; details: NCI-H23, 6 days
Protocol: (§1) Arsenic trioxide (1 mg/ml, 10 mg/ampoule, manufactured by Taylor Pharmaceuticals, Decatur, Ill.) was tested at five concentrations each at 10-fold dilutions, i.e., 10^−5, 10^−6, 10^−7, 10^−8 and 10^−9 μg/ml.
(§2) The in vitro tests were performed by incubating the test cells in the presence of the indicated concentration of arsenic trioxide under standard culture conditions for a designated period of time, which is followed by a sulforhodamine B (SRB) protein assay to estimate cell viability or growth. The cell lines are organized into subpanels according to the origin of the cell lines, e.g., leukemia, breast cancer, etc. A description of the cell lines and method of testing is described in Monk et al. (1997, Anticancer Drug Des. 12:533-41) and Weinstein et al., (1997, Science 275:343-9), which are incorporated herein in their entirety.
(§3) The measurement of an effect is expressed in Percentage Growth (PG). The measured effect of the compound on a cell line is calculated according to one or the other of the following two expressions: If (Mean ODtest−Mean ODzero)≧0. then PG=100×(Mean ODtest−Mean ODzero)/(Mean ODctrl−Mean ODzero) If (Mean ODtest−Mean ODzero)<0. then PG=100×(Mean ODtest−Mean ODzero)/(Mean ODzero where: • Mean ODzero=the average of optical density measurements of SRB-derived color just before exposure of cells to the test compounds; • Mean ODtest=the average of optical density measurements of SRB-derived color after exposure of cells to the test compound for a designated period of time; and • Mean ODctrl=the average of optical density measurements of SRB-derived color after with no exposure of cells to the test compound for a designated period of time
(§4) The first two columns describe the subpanel (e.g., leukemia) and cell line (e.g., CCRF-CEM) involved. The next two columns list the Mean ODzero and Mean ODctrl; the next five columns list the Mean ODtest for each of five different concentrations. Each concentration is expressed as the log10 (molar or μg/ml). The next five columns list the calculated PGs for each concentration. The response parameters GI50, TGI and LC50 are interpolated values representing the concentrations at which the PG is +50, 0, and −50, respectively. Sometimes these response parameters cannot be obtained by interpolation. If, for instance, all of the PGs in a given row exceed +50, then none of the three parameters can be obtained by interpolation. In such a case, the value given for each response parameter is the highest concentration tested and is preceded by a “>” sign. This practice is extended similarly to the other possible situations where a response parameter cannot be obtained by interpolation.
(§5) In the first set, the cells from 56 different cancer cell lines were exposed to five concentrations of arsenic trioxide continuously for two days prior to performing the SRB assay. In the second set, the cells from 50 different cell lines (a subset of the first 56 cell lines, plus the renal cancer cell line 786-0) were exposed continuously for six days prior to the SRB assay.

NCI-H522 = assay: as above; type: cell-based; details: NCI-H522, 6 days
Protocol: as §1, §2, §3, §4, §5

NCI-H460 = assay: as above; type: cell-based; details: NCI-H460, 6 days
Protocol: as §1, §2, §3, §4, §5

EKVX = assay: as above; type: cell-based
Protocol: as §1, §2, §3, §4, §5

HOP-62 = assay: as above; type: cell-based; details: HOP-62, 6 days
Protocol: as §1, §2, §3, §4, §5

MDA-MB-231/ATCC = assay: SRB growth assay, 2 days exposure, breast cancer; type: cell-based
Protocol: as §1, §2, §3, §4, §5

BT-549 = assay: SRB growth assay, 2 days exposure, breast cancer; type: cell-based
Protocol: as §1, §2, §3, §4, §5

T-47D = assay: SRB growth assay, 2 days exposure, breast cancer; type: cell-based
Protocol: as §1, §2, §3, §4, §5

MDA-N = assay: SRB growth assay, 2 days exposure, breast cancer; type: cell-based
Protocol: as §1, §2, §3, §4, §5

MDA-MB-435 = assay: SRB growth assay, 2 days exposure, breast cancer; type: cell-based
Protocol: as §1, §2, §3, §4, §5

[1] = read-out: LC50 (the source's name)

arsenic trioxide
clinical efficacy (refractory APL): complete morphologic remission without associated bone marrow suppression | Mean Optical Densities (NCI-H23; Log 10 Concentration −4.9): 0.086 | Percent Growth (NCI-H23; Log 10 Concentration −4.9): 1% | Mean Optical Densities (NCI-H23; Log 10 Concentration −5.9): 1.303 | Percent Growth (NCI-H23; Log 10 Concentration −5.9): 79% | Mean Optical Densities (NCI-H23; Log 10 Concentration −6.9): 1.872 | Percent Growth (NCI-H23; Log 10 Concentration −6.9): 116% | Mean Optical Densities (NCI-H23; Log 10 Concentration −7.9): 1.814 | Percent Growth (NCI-H23; Log 10 Concentration −7.9): 112% | Mean Optical Densities (NCI-H23; Log 10 Concentration −8.9): 1.818 | Percent Growth (NCI-H23; Log 10 Concentration −8.9): 113% | CC50 (NCI-H23; [1]): > 12.6 µM | Mean Optical Densities (NCI-H522; Log 10 Concentration −4.9): 0.028 | Percent Growth (NCI-H522; Log 10 Concentration −4.9): −84% | Mean Optical Densities (NCI-H522; Log 10 Concentration −5.9): 0.128 | Percent Growth (NCI-H522; Log 10 Concentration −5.9): −27% | Mean Optical Densities (NCI-H522; Log 10 Concentration −6.9): 1.191 | Percent Growth (NCI-H522; Log 10 Concentration −6.9): 97% | Mean Optical Densities (NCI-H522; Log 10 Concentration −7.9): 0.535 | Percent Growth (NCI-H522; Log 10 Concentration −7.9): 34% | Mean Optical Densities (NCI-H522; Log 10 Concentration −8.9): 1.269 | Percent Growth (NCI-H522; Log 10 Concentration −8.9): 104% | Mean Optical Densities (NCI-H460; Log 10 Concentration −4.9): 0.062 | Percent Growth (NCI-H460; Log 10 Concentration −4.9): 1% | Mean Optical Densities (NCI-H460; Log 10 Concentration −5.9): 2.535 | Percent Growth (NCI-H460; Log 10 Concentration −5.9): 89% | Mean Optical Densities (NCI-H460; Log 10 Concentration −6.9): 2.792 | Percent Growth (NCI-H460; Log 10 Concentration −6.9): 98% | Mean Optical Densities (NCI-H460; Log 10 Concentration −7.9): 2.806 | Percent Growth (NCI-H460; Log 10 Concentration −7.9): 99% | Mean Optical Densities (NCI-H460; Log 10 Concentration −8.9): 2.797 | Percent Growth (NCI-H460; Log 10 Concentration −8.9): 99% | CC50 (NCI-H460; [1]): > 12.6 µM | TGI (EKVX): 4.22E−06 | Mean Optical Densities (EKVX; Log 10 Concentration −4.9): 0.014 | Percent Growth (EKVX; Log 10 Concentration −4.9): −53% | Mean Optical Densities (EKVX; Log 10 Concentration −5.9): 0.414 | Percent Growth (EKVX; Log 10 Concentration −5.9): 59% | Mean Optical Densities (EKVX; Log 10 Concentration −6.9): 0.628 | Percent Growth (EKVX; Log 10 Concentration −6.9): 92% | Mean Optical Densities (EKVX; Log 10 Concentration −7.9): 0.601 | Percent Growth (EKVX; Log 10 Concentration −7.9): 88% | Mean Optical Densities (EKVX; Log 10 Concentration −8.9): 0.573 | Percent Growth (EKVX; Log 10 Concentration −8.9): 83% | Mean Optical Densities (HOP-62; Log 10 Concentration −4.9): 0.014 | Percent Growth (HOP-62; Log 10 Concentration −4.9): −77% | Mean Optical Densities (HOP-62; Log 10 Concentration −5.9): 0.451 | Percent Growth (HOP-62; Log 10 Concentration −5.9): 40% | Mean Optical Densities (HOP-62; Log 10 Concentration −6.9): 1.019 | Percent Growth (HOP-62; Log 10 Concentration −6.9): 99% | Mean Optical Densities (HOP-62; Log 10 Concentration −7.9): 0.997 | Percent Growth (HOP-62; Log 10 Concentration −7.9): 97% | Mean Optical Densities (HOP-62; Log 10 Concentration −8.9): 1.076 | Percent Growth (HOP-62; Log 10 Concentration −8.9): 105% | TGI (MDA-MB-231/ATCC): >0.0126 ng/mL | Percent Growth (MDA-MB-231/ATCC; log10 conc −4.9): 3% | Percent Growth (MDA-MB-231/ATCC; log10 conc −5.9): 107% | Percent Growth (MDA-MB-231/ATCC; log10 conc −6.9): 109% | Percent Growth (MDA-MB-231/ATCC; log10 conc −7.9): 102% | Percent Growth (MDA-MB-231/ATCC; log10 conc −8.9): 97% | TGI (BT-549): >0.0126 ng/mL | Percent Growth (BT-549; log10 conc −4.9): 26% | Percent Growth (BT-549; log10 conc −5.9): 84% | Percent Growth (BT-549; log10 conc −6.9): 108% | Percent Growth (BT-549; log10 conc −7.9): 110% | Percent Growth (BT-549; log10 conc −8.9): 114% | TGI (T-47D): 0.00986 ng/mL | Percent Growth (T-47D; log10 conc −4.9): −10% | Percent Growth (T-47D; log10 conc −5.9): 81% | Percent Growth (T-47D; log10 conc −6.9): 133% | Percent Growth (T-47D; log10 conc −7.9): 109% | Percent Growth (T-47D; log10 conc −8.9): 88% | TGI (MDA-N): >0.0126 ng/mL | Percent Growth (MDA-N; log10 conc −4.9): 3% | Percent Growth (MDA-N; log10 conc −5.9): 86% | Percent Growth (MDA-N; log10 conc −6.9): 91% | Percent Growth (MDA-N; log10 conc −7.9): 101% | Percent Growth (MDA-N; log10 conc −8.9): 102% | TGI (MDA-MB-435): >0.0126 ng/mL | Percent Growth (MDA-MB-435; log10 conc −4.9): 21% | Percent Growth (MDA-MB-435; log10 conc −5.9): 94% | Percent Growth (MDA-MB-435; log10 conc −6.9): 105% | Percent Growth (MDA-MB-435; log10 conc −7.9): 93% | Percent Growth (MDA-MB-435; log10 conc −8.9): 94%
